In patent US8536187B2 (Gilead Sciences, Inc., priority 2008, dated 2013):

Key:
[1] = tested on: HCV replicon in human hepatoma Huh-7 cell line; test: Anti-HCV replicon assay, EC50 (luciferase luminescence); assay type: cell-based; conditions: Hepatitis C virus, Huh-7, 72 h
Procedure, shortened: (§1)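 Huh-7 cells carrying HCV replicon (6000/well) incubated with serially diluted compound, 0.5% DMSO final, 3 days at 37° C, 5% CO2. EC50 from luciferase luminescence after 30 min lysis/substrate at room temperature; CC50 from CellTiter-Glo luminescence after 10 min at room temperature.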

[2] = CC50 assay (CellTiter-Glo) in Huh-7 HCV replicon cells; assay type: cell-based; conditions: human
Procedure, shortened: as §1

| Structure (SMILES) | EC50 [1] [nM] | CC50 at 3 days ([2]; Table 1, 3 days incubation) [nM] | CC50 at 3 days ([2]; Table 2, 3 days incubation) [nM] |
| --- | --- | --- | --- |
| CS(=O)(=O)c1cccc(-c2ccc3nc(NCc4cccc(-n5cncn5)c4)nc(NCC(F)(F)F)c3n2)c1 [Example 16, 6-(3-Methanesulfonyl-phenyl)-N2-(3-[1,2,4]-triazol-1-yl-benzyl)-N4-(2,2,2-trifluoro-ethyl)-pyrido[3,2-d]pyrimidine-2,4-diamine] | < 100 | > 25000 | – |
| NS(=O)(=O)c1cc(F)cc(CNc2nc(NC3(C(F)(F)F)CC3)c3nc(C#CC4CC4)ccc3n2)c1 [Example 63, 3-((6-(2-cyclopropylethynyl)-4-(1-(trifluoromethyl)cyclopropylamino)pyrido[3,2-d]pyrimidin-2-ylamino)methyl)-5-fluorobenzenesulfonamide] | < 100 | – | > 10000 |
| Cc1ccc(-c2ccc3nc(NCc4ccc(-n5cncn5)cc4)nc(NCC(F)(F)F)c3n2)cc1S(C)(=O)=O [Example 179, N^2-(4-(1H-1,2,4-triazol-1-yl)benzyl)-6-(4-methyl-3-(methylsulfonyl)phenyl)-N^4-(2,2,2-trifluoroethyl)pyrido [3,2-d]pyrimidine-2,4-diamine] | < 100 | – | > 10000 |
| CC(C)(O)CNc1nc(NCC(F)(F)F)c2nc(-c3cccc(S(C)(=O)=O)c3)ccc2n1 [Example 159, 2-methyl-1-(6-(3-(methylsulfonyl)phenyl)-4-(2,2,2-trifluoroethylamino)pyrido[3,2-d]pyrimidin-2-ylamino)propan-2-ol] | 100 to 250 | – | > 10000 |
| CS(=O)(=O)c1cccc(-c2ccc3nc(NCc4ccc(-n5ccnc5)cc4)nc(NCC(F)(F)F)c3n2)c1 [Example 193, N^2-(4-(1H-imidazol-1-yl)benzyl)-6-(3-(methylsulfonyl)phenyl)-N^4-(2,2,2-trifluoroethyl) pyrido[3,2-d]pyrimidine-2,4-diamine] | < 100 | – | > 10000 |
| CC(C)Oc1ccc(-c2ccc3nc(N[C@H](C)Cn4cncn4)nc(NCC(F)(F)F)c3n2)cn1 [Example 241, N^2-((R)-1-(1H-1,2,4-triazol-1-yl)propan-2-yl)-6-(6-isopropoxypyridin-3-yl)-N^4-(2,2,2-trifluoroethyl)pyrido [3,2-d]pyrimidine-2,4-diamine] | < 100 | – | > 10000 |
| NS(=O)(=O)c1cccc(CNc2nc(NC3(C(F)(F)F)CC3)c3nc(-c4ccc(F)cc4)ccc3n2)c1 [Example 116, 3-((6-(4-fluorophenyl)-4-(1-(trifluoromethyl)cyclopropyl-amino)pyrido[3,2-d]pyrimidin-2-ylamino)methyl)benzene-sulfonamide] | < 100 | – | > 10000 |
| C[C@@H](Nc1nc(OC2(C)CC2)c2nc(C#CC3CC3)ccc2n1)c1ccc(S(N)(=O)=O)cc1 [Example 296, (R)-4-(1-(6-(2-cyclopropyl-ethynyl)-4-(1-methylcyclo-propoxy)pyrido[3,2-d]pyrimidin-2-ylamino)ethyl)benzene-sulfonamide] | < 100 | – | > 10000 |
| COc1ccc(-c2ccc3nc(NCc4cccc(S(C)(=O)=O)c4)nc(NC4(C(F)(F)F)CC4)c3n2)cc1S(C)(=O)=O [Example 35, N^2-(3-(methylsulfonyl)benzyl)-6-(4-methoxy-3-(methylsulfonyl)phenyl)-N^4-(1-(trifluoromethyl)cyclopropyl) pyrido[3,2-d]pyrimidine-2,4-diamine] | < 100 | – | 1000 to 10000 |
| CC#Cc1ccc2nc(N[C@H](C)c3ccc(S(N)(=O)=O)cc3)nc(NCC(F)(F)F)c2n1 [Example 298, (R)-4-(1-(6-(prop-1-ynyl)-4-(2,2,2-trifluoroethylamino)pyrido[3,2-d]pyrimidin-2-ylamino)ethyl)benzene-sulfonamide] | < 100 | – | > 10000 |
| CS(=O)(=O)c1cccc(CNc2nc(NC3(C(F)(F)F)CC3)c3nc(-c4ccc(N5CCNC5=O)cc4)ccc3n2)c1 [Example 111, 1-(4-(2-(3-(methylsulfonyl)benzylamino)-4-(1-(trifluoromethyl)cyclopropyl-amino)pyrido[3,2-d]pyrimidin-6-yl)phenyl)imidazolidin-2-one] | < 100 | – | 1000 to 10000 |
| Cc1nccn1-c1cccc(CNc2nc(NC3(C(F)(F)F)CC3)c3nc(-c4ccc(F)cc4)ccc3n2)c1 [Example 53, N^2-(3-(2-methyl-1H-imidazol-1-yl)benzyl)-6-(4-fluorophenyl)-N^4-(1-(trifluoromethyl)cyclopropyl)pyrido[3,2-d] pyrimidine-2,4-diamine] | 250 to 2000 | – | 1000 to 10000 |
| CS(=O)(=O)c1cccc(-c2ccc3nc(NCC(O)CO)nc(NCC(F)(F)F)c3n2)c1 (centres unmarked) [Example 158, 3-(6-(3-(methylsulfonyl)phenyl)-4-(2,2,2-trifluoroethylamino)pyrido[3,2-d]pyrimidin-2-ylamino)propane-1,2-diol] | 250 to 2000 | – | > 10000 |
| NS(=O)(=O)c1cc(CNc2nc(NC3(C(F)(F)F)CC3)c3nc(-c4ccc(F)cc4)ccc3n2)ccc1C(F)(F)F [Example 118, 5-((6-(4-fluorophenyl)-4-(1-(trifluoromethyl)cyclopropyl-amino)pyrido[3,2-d]pyrimidin-2-ylamino)methyl)-2-(trifluoro-methyl)benzenesulfonamide] | 250 to 2000 | – | > 10000 |
| C#Cc1ccc2nc(NCc3ccc(S(N)(=O)=O)cc3)nc(OC3CC3)c2n1 [Example 300, 4-((4-cyclopropoxy-6-ethynylpyrido[3,2-d]pyrimidin-2-ylamino)methyl) benzenesulfonamide] | 250 to 2000 | – | 1000 to 10000 |
| COc1ccc(-c2ccc3nc(NCc4ccc(S(N)(=O)=O)cc4)nc(NCC(F)(F)F)c3n2)cc1S(=O)(=O)C(F)(F)F [Example 165, 4-((6-(4-methoxy-3-(trifluoromethylsulfonyl)phenyl)-4-(2,2,2-trifluoroethylamino)pyrido[3,2-d]pyrimidin-2-ylamino)methyl)benzene-sulfonamide] | < 100 | – | 1000 to 10000 |
| C[C@@H](Nc1nc(NCC(F)(F)F)c2nc(-c3cncc(S(C)(=O)=O)c3)ccc2n1)c1ccc(S(N)(=O)=O)cc1 [Example 156, 4-((R)-1-(6-(5-(methylsulfonyl)pyridin-3-yl)-4-(2,2,2-trifluoroethylamino)pyrido [3,2-d]pyrimidin-2-ylamino)ethyl)benzenesulfonamide] | 250 to 2000 | – | > 10000 |
| CC(C)(C)NS(=O)(=O)c1cc(F)cc(CNc2nc(NC3(C(F)(F)F)CC3)c3nc(-c4ccc(F)nc4)ccc3n2)c1 [Example 78, N-tert-butyl-3-fluoro-5-((6-(6-fluoropyridin-3-yl)-4-(1-(trifluoromethyl)cyclopropyl-amino)pyrido[3,2-d]pyrimidin-2-ylamino)methyl)benzene-sulfonamide] | 100 to 250 | – | > 10000 |
| O=C1NCCN1c1ccc(-c2ccc3nc(NCc4ccc(-n5cncn5)cc4)nc(NC4(C(F)(F)F)CC4)c3n2)cc1 [Example 129, 1-(4-(2-(4-(1H-1,2,4-triazol-1-yl)benzylamino)-4-(1-(trifluoromethyl)cyclopropyl-amino)pyrido[3,2-d]pyrimidin-6-yl)phenyl)imidazolidin-2-one] | < 100 | – | < 1000 |
